According to US12121521B2, “Uses of salt-inducible kinase (SIK) inhibitors for treating osteoporosis” (The General Hospital Corporation, priority 2016, dated 2024):
Entries after “also recorded” stand apart in the source; their conditions may differ.

Key:
[1] = Half-life in murine hepatic microsomes; type: in vitro ADME; conditions: compared to YKL-04-114 and HG-9-91-01; FIG. 16
Procedure: FIG. 16: The half-life (in minute) of the indicated compound was measured in murine hepatic microsomes.

Ocy454 cells = experiment: Immunoblotting of Ocy454 cell lysates (HDAC4/5, CRTC2, SIK2 phosphorylation and localisation); type: cell-based, mouse; conditions: 10 uM, 90 minutes, compared to DMSO control; FIGS. 17 to 19
Procedure: The Ocy454 osteocyte cell line was treated for 90 minutes with the indicated compound at 10 uM dose (FIG. 17). Phospho-HDAC4 S246 levels were monitored by immunoblotting (top band) compared to DMSO control.
For all experiments, a single cell subclone of Ocy454 cells (17, 18) was used. Cells were passages in alpha-MEM supplemented with 10% heat-inactivated fetal bovine serum and 1% antibiotics (penicillin/streptomycin, Fungizone) at 33° C. with 5% CO2. Cells were plated at 50,000 cells/ml and allowed to reach confluency at 33° C. (typically in 2-3 days). At this point, cells were transferred to 37° C. for subsequent analysis. For immunoblotting, cells were always analyzed after culture at 37° C. for 7 days. For gene expression analysis, cells were analyzed after culture at 37° C. for 14 days. Mycoplasma contamination was ruled out by PCR. Cells were routinely assayed for SOST expression at 37° C. and examined for osteocytic morphology. […]

[2] = In vivo toxicity experiments (weight, CBC, serum chemistry); parameters: species or system mouse
Description: Blood was obtained for the complete blood count (CBC) measurement, and serum was obtained for the glucose, blood urea nitrogen (BUN), cholesterol, triglycerides, ALT, Creatine kinase (CK), amylase, and total protein measurements. […] “WBC” refers to “white blood cell”. “Hgb” refers to “hemoglobin”. “Pit” refers to “platelet”.

[3] = test system: M-CSF+RANKL-primed osteoclastogenesis; experiment: Osteoclast differentiation of bone marrow-derived macrophages (TRAP); type: cell-based, murine; conditions: in vitro; read-out: IC50 of inhibition of M-CSF+RANKL-primed osteoclastogenesis
Procedure: (§1) Static and dynamic histomorphometry was performed (see FIG. 24). […] Effects on osteoclast differentiation were assessed by TRAP secretion assays and counting multi-nucleated TRAP-positive cells (see FIG. 26). M-CSF signaling in primary macrophages, was assessed by immunoblotting for MCSF-receptor Y723 phosphorylation and ERK1/2 phosphorylation (see FIG. 27).

male C57B/6 mice = experiment: YKL-05-099 dose range once daily for two weeks: histomorphometry; type: in vivo, mouse; conditions: 18 mg/kg once daily
Procedure: Right tibia from 8-week-old mice were subjected to bone histomorphometric analysis. The mice were injected 20 mg/kg body weight of calcein and 40 mg/kg body weight of demeclocycline on 7 and 2 days before necropsy, respectively. The tibia was dissected and fixed in 70% ethanol for 3 days. Fixed bones were dehydrated in graded ethanol, then infiltrated and embedded in methylmethacrylate without demineralization. Undecalcified 4-μm-thick longitudinal sections were obtained using microtome (RM2255, Leica Biosystems., IL, USA). Sections were left unstained for dynamic parameters measurement, and consecutive sections were stained with tartrate-resistant acid phosphatase and counterstained with toluidine blue for measurement of cellular parameters. A standard dynamic bone histomorphometric analysis of the tibial metaphysis was done using the Osteomeasure analyzing system (Osteometrics Inc., Decatur, GA, USA). Measurements were performed in the area of secondary spongiosa, 200 μm below the proximal growth plate. The observer was blinded to the experimental genotype at the time of measurement. The structural, dynamic and cellular parameters were calculated and expressed according to the standardized nomenclature (75).
as §1

| SMILES | half-life / stability in murine hepatic microsomes [1] | Phospho-HDAC4 S246 levels (Ocy454 cells) | growth or peripheral blood counts ([2]; 4 week treatment) | weight gain ([2]; 4 week treatment (weeks 20-24)) | toxicity judged from hematology data ([2]; 4 week treatment, FIGS. 36A to 36D) | IC50 [3] [nM] | Ob.S/BS (male C57B/6 mice; p<0.01 vs vehicle) | trabecular bone volume (male C57B/6 mice; p<0.01 vs vehicle, in % (unit assumed)) | Oc.S/BS (male C57B/6 mice; p<0.05 vs vehicle) |
| --- | --- | --- | --- | --- | --- | --- | --- | --- | --- |
| COc1ccc(N2C(=O)N(c3c(C)cccc3C)Cc3cnc(Nc4ccc(C5CCN(C)CC5)c(OC)c4)nc32)c(OC)c1 [YKL-05-093] | improved half-life; also recorded: somewhat improved stability | showed clear activity with respect to reducing HDAC4 S246 levels; also recorded: most reproducibly led to reduced HDAC4 S246 phosphorylation |  |  |  |  |  |  |  |
| COc1ccc(N2C(=O)N(c3c(C)cccc3Cl)Cc3cnc(Nc4ccc(C5CCN(C)CC5)cc4OC)nc32)nc1 [YKL-05-099] |  |  | Neither PTH nor YKL-05-099 altered growth or peripheral blood counts | normal weight gain | not toxic under the test conditions | 52 | 16.8±1.3 | 16.3±2.0 | 1.59±0.4 |
